# In US10159672B2 (PARION SCIENCES, INC., priority 2011, dated 2018):
# How the values were obtained:
# [1] = system: New Zealand White rabbits; assay: Acute non-GLP ocular toxicity / tolerability study; assay type: in vivo
# Experimental: • An Acute Non-GLP Ocular Toxicity Study In New Zealand White Rabbits With P-1046
# The purpose of this study was to evaluate the ocular tolerability and systemic exposure of P-1046, an inhibitor of the epithelial sodium channel (ENaC), when administered as a topical instillation to New Zealand white rabbits.
# The test article (P-1046) were supplied as a light yellow white powder. The test articles were then prepared into dosing solutions for topical ocular application. Twenty-eight experimentally naïve male New Zealand White rabbits, approximately 4 months old at the outset of the study and weighing 2.6-3.1 kilograms at randomization were assigned to treatment groups as shown in the table below:
# Animals were administered 50 μl of the test or control vehicle onto the globe of right eye and 50 μl of saline onto the globe of the left eye eight times (approximately one hour between each dose) in Groups 1 and 6 and four times (approximately two hours between each dose) in Group 7. Mortality and clinical observations were recorded daily. Body weights were recorded at randomization/selection and prior to sacrifice on Day 2. For blink rate assessment, eye blinks in the right eye only were counted for 3 minutes prior to treatment initiation and following all doses. Instances of wincing and pawing at the eyes during the 3-minute eye blink observation period were recorded as clinical observations. Food consumption was recorded daily. Eyes were scored according to Draize prior to treatment, following each dose and on Day 2 at approximately 24 hours post-dose. Blood for toxicokinetic evaluation was collected from animals in Group 2-7 at pre-dose, 30 minutes after the middle dose (4th dose in groups 3, 5, and 6; 2nd dose in groups 2, 4, and 7) and at 30, 60, 120 and 240 minutes following the final dose on Day 1. Blood samples for evaluation of serum chemistry parameters were collected prior to treatment initiation and at 120 and 240 min following the final dose. Urine samples were collected over a 4-hour period following the final dose. All animals were sacrificed following completion of study procedures on Day 2.
# [2] = system: Canine Bronchial Epithelial Cells; assay: Durability of retention of airway surface liquid; assay type: cell-based
# [3] = system: Human Bronchial Epithelial; assay: Metabolism by human bronchial epithelial cells; assay type: in vitro ADME; settings: apical or basolateral
# Experimental: Airway epithelial cells have the capacity to metabolize drugs during the process of transepithelial absorption. Further, although less likely, it is possible that drugs can be metabolized on airway epithelial surfaces by specific ectoenzyme activities. Perhaps more likely as an ecto-surface event, compounds may be metabolized by the infected secretions that occupy the airway lumens of patients with lung disease, e.g. cystic fibrosis. Thus, a series of assays is performed to characterize the compound metabolism that results from the interaction of test compounds with human airway epithelia and/or human airway epithelial lumenal products.
# In the first series of assays, the interaction of test compounds in KBR as an “ASL” stimulant are applied to the apical surface of human airway epithelial cells grown in the T-Col insert system. For most compounds, metabolism (generation of new species) is tested for using high performance liquid chromatography (HPLC) to resolve chemical species and the endogenous fluorescence properties of these compounds to estimate the relative quantities of test compound and novel metabolites. […] In instances where the fluorescence properties of the test molecule are not adequate for such characterizations, radiolabeled compounds are used for these assays. […]
# Human plasma stability = assay type: in vitro ADME; settings: over 4 hours
# Rat Hepatocyte = assay: Rat hepatocyte metabolism; assay type: in vitro ADME; settings: 24-hour incubation
# [4] = 10 mM x 8 doses and 30 mM x 4 doses, topical ocular, rabbit
smiles,measurement,setting,value
"CN(C)C(=O)[C@H](CCCCNC(=N)N)NC(=O)[C@H](CCc1ccc(CCCCNC(=N)NC(=O)c2nc(Cl)c(N)nc2N)cc1)N(C)C [Compound I, 3,5-diamino-6-chloro-N-(N-(4-(4-((S)-3-(dimethylamino)-4-((S)-1-(dimethylamino)-6-guanidino-1-oxohexan-2-ylamino)-4-oxobutyl)phenyl)butyl)carbamimidoyl)pyrazine-2-carboxamide]",Appearance of eyes on Day 2,[1]; 10 mM group,appeared normal
same,Average blink rate,[1]; [4],"only slight increases at some time points, similarly to vehicle treated animals"
same,Cumulative Draize scores (right eye),[1]; [4],only slight increases in Draize scoring which are not greater than those observed for vehicle treated animals
same,"Post-dose conjunctival redness, severity and incidence",[1]; 10 and 30 mM,comparable to the vehicle controls
same,Stinging on instillation,[1]; 10 and 30 mM,do not cause stinging
same,Ocular tolerability,[1]; 10 and 30 mM formulations,well tolerated
same,"Durability of Retention of Airway Surface Liquid, fluid retained","[2]; 8 hours after drug delivery, n=3",94±5%
same,"Durability of Retention of Airway Surface Liquid, fluid retained","[2]; 24 hours after drug delivery, n=2",56±6%
same,Metabolism by Human Bronchial Epithelial,[3],No metabolites detected
same,Human Plasma Stability,Human plasma stability,No metabolism detected
same,Rat Hepatocyte Metabolism,Rat Hepatocyte,No evidence of significant metabolism
